Data on 13 compounds can be found in ChEMBL document CHEMBL1201862, “PubChem BioAssay data set” (2004).

The term GI50 denotes the concentration at which growth is held to half of that of the control.

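These data come from cells grown in 96-well plates and exposed to compound for 48 hours at five concentrations. GI50: concentration for 50% inhibition of growth.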 Active and inactive are the calls of the source. Cut-off read from the data, not from the text of the source: active = GI50 up to about 1.1 µM and inactive = higher.

Among the test systems are LXFL 529; RXF 393; SNB-19; OVCAR-4; OVCAR-5; ACHN; UACC-257; SK-MEL-28; OVCAR-3; HOP-62; KM12; SK-MEL-5; SF-268; LOX IMVI; A498; NCI-H522; SF-539; K562.
Common to all, as to experiment: DTP human tumour cell line panel, 48 h

For `O=C(CC1Sc2ccccc2NC1=O)Nc1ccc([N+](=O)[O-])cc1[N+](=O)[O-]` (stereo unspecified), the GI50 in the assay on LXFL 529 was 15.3 µM (inactive); with RXF 393 it was 12.9 µM (inactive); in the assay on SNB-19, 19.5 µM (inactive); in the assay with OVCAR-4, 17.2 µM (inactive); with OVCAR-5, 29.2 µM (inactive); with ACHN, 15.3 µM (inactive). For the same compound, the GI50 with UACC-257 is 19.9 µM (inactive); in the assay on SK-MEL-28, 17.7 µM (inactive); with OVCAR-3 it was 16.3 µM (inactive); with HOP-62, 40.6 µM (inactive); with KM12, 21.7 µM (inactive); in the assay on SK-MEL-5 it was 15.8 µM (inactive). Further, the GI50 in the assay with SF-268 is 16.6 µM (inactive); in the assay on LOX IMVI it was 16.2 µM (inactive).
Regarding `COc1ccc2nc3cc(Cl)ccc3c(NC(C)CCCN(CCCl)CCCl)c2c1` (stereo unspecified), the concentration for 50% growth inhibition (GI50) is 0.439 µM (active) with LXFL 529; 1.04 µM (active) with RXF 393; 0.74 µM (active) in the assay with SNB-19; 0.849 µM (active) in the assay with OVCAR-4; 0.929 µM (active) with OVCAR-5; 0.161 µM (active) in the assay on ACHN. For the same compound, the GI50 is 3.12 µM (inactive) in the assay with A498; 1.43 µM (inactive) with UACC-257; 5 µM (inactive) in the assay on SK-MEL-28; 0.55 µM (active) in the assay with NCI-H522; 0.853 µM (active) with OVCAR-3; 1.4 µM (inactive) with HOP-62. In addition, the GI50 in the assay with SF-539 is 0.55 µM (active); in the assay with KM12 it was 0.52 µM (active); in the assay on SK-MEL-5, 1.97 µM (inactive); in the assay on SF-268, 0.273 µM (active); in the assay on LOX IMVI, 0.176 µM (active); with K562, 0.262 µM (active).
As for `Nc1cccc(C(=O)/C=C/c2ccccc2O)c1`, the GI50 in the assay on LXFL 529 is 71.4 µM (inactive); with RXF 393, 85.5 µM (inactive); in the assay with SNB-19 it was > 100 µM (inactive); with OVCAR-5, > 100 µM (inactive); in the assay on ACHN, > 100 µM (inactive); with A498, > 100 µM (inactive). The GI50 in the assay with UACC-257 was > 100 µM (inactive); with SK-MEL-28, > 100 µM (inactive); in the assay on NCI-H522 it was 59.4 µM (inactive); with OVCAR-3 it was > 100 µM (inactive); in the assay with HOP-62, > 100 µM (inactive); in the assay with SF-539, > 100 µM (inactive). Also, the GI50 is > 100 µM (inactive) with KM12; > 100 µM (inactive) in the assay with SK-MEL-5; > 100 µM (inactive) with SF-268; 31.4 µM (inactive) with LOX IMVI; 32.9 µM (inactive) with K562.
Turning to `Cc1nc2ccccn2c1/N=N/c1ccc(C(=O)NN)cc1`, the GI50 in the assay on LXFL 529 was 38.5 µM (inactive); in the assay on RXF 393, 9.82 µM (inactive); in the assay with SNB-19 it was 49.5 µM (inactive); in the assay on OVCAR-4, > 100 µM (inactive); in the assay on OVCAR-5 it was 36.1 µM (inactive); with ACHN it was 36 µM (inactive). Besides, the GI50 with A498 was 27.7 µM (inactive); in the assay on UACC-257, 97.5 µM (inactive); in the assay on SK-MEL-28, 80.9 µM (inactive); in the assay with OVCAR-3 it was 45 µM (inactive); in the assay on HOP-62 it was 38.3 µM (inactive); in the assay with SF-539 it was 77.3 µM (inactive). The GI50 in the assay on SK-MEL-5 is 22.4 µM (inactive); with SF-268, 19.4 µM (inactive); in the assay on LOX IMVI, 26.3 µM (inactive); in the assay on K562 it was 49.8 µM (inactive).
As for `C#CC1(O)CCC2C3CCc4cc(Oc5nc(F)nc(-c6c7ccccc7c7n6CCS7)n5)ccc4C3CC[C@@]21C` (stereo partly specified), the GI50 in the assay with LXFL 529 was 25.1 µM (inactive); in the assay with SNB-19 it was 24.6 µM (inactive); in the assay on OVCAR-4, 15.3 µM (inactive); with OVCAR-5, > 100 µM (inactive); in the assay with ACHN, 29.6 µM (inactive); in the assay with UACC-257, 36.1 µM (inactive). Further, the GI50 in the assay on SK-MEL-28 is 21.1 µM (inactive); in the assay with NCI-H522 it was 4.37 µM (inactive); in the assay on OVCAR-3, 17.9 µM (inactive); in the assay on HOP-62 it was 17.9 µM (inactive); with SF-539, 15.7 µM (inactive); in the assay on KM12, 15.1 µM (inactive). The GI50 in the assay with SK-MEL-5 was 17.4 µM (inactive); in the assay with SF-268 it was 29 µM (inactive); with K562 it was 21.3 µM (inactive).
Turning to `C[S+]=c1sc2ccccc2s1`, the GI50 in the assay with LXFL 529, in the assay with RXF 393, in the assay on SNB-19, with OVCAR-4, with OVCAR-5 and in the assay on ACHN was > 100 µM (inactive) each time. Besides, the GI50 in the assay with A498, in the assay on UACC-257, in the assay on NCI-H522, in the assay on HOP-62, in the assay with SF-539 and with KM12 was > 100 µM (inactive) in each case. Further, the GI50 in the assay with SK-MEL-5, in the assay on SF-268, with LOX IMVI and in the assay with K562 was > 100 µM (inactive) throughout.
`COc1ccc(C(=O)C(C(=O)CC(=O)Nc2cccc(C(F)(F)F)c2)c2ccc(OC)cc2)cc1` (stereo unspecified): the GI50 is > 100 µM (inactive) with LXFL 529; 78.9 µM (inactive) with RXF 393; > 100 µM (inactive) with SNB-19; > 100 µM (inactive) in the assay on OVCAR-4; 7.73 µM (inactive) in the assay with OVCAR-5; > 100 µM (inactive) with ACHN. The GI50 in the assay with A498, in the assay with UACC-257, in the assay on SK-MEL-28, in the assay on NCI-H522, in the assay with OVCAR-3 and in the assay on HOP-62 was > 100 µM (inactive) throughout. The GI50 in the assay on SF-539, with KM12, with SK-MEL-5, in the assay on SF-268 and in the assay on K562 was > 100 µM (inactive) throughout.
Consider `NC(=O)C(=O)Cc1nc2ccccc2s1`, for which the GI50 with LXFL 529, in the assay with RXF 393, in the assay on SNB-19, with OVCAR-4, in the assay with OVCAR-5 and in the assay with ACHN was > 100 µM (inactive) each time. The GI50 in the assay with A498, in the assay on UACC-257, in the assay on SK-MEL-28, with NCI-H522, in the assay with OVCAR-3 and in the assay with HOP-62 was > 100 µM (inactive) in each case. For the same compound, the GI50 in the assay on SF-539, in the assay with KM12, in the assay on SF-268, in the assay with LOX IMVI and in the assay with K562 was > 100 µM (inactive) throughout.
`CC1=N/C(=C\c2cccc3ccccc23)C(=O)O1`: the GI50 with LXFL 529, in the assay with RXF 393, in the assay with SNB-19, in the assay with OVCAR-5, with ACHN and in the assay with A498 was > 100 µM (inactive) throughout. The GI50 in the assay with UACC-257, with SK-MEL-28, with NCI-H522, in the assay with HOP-62, with SF-539 and in the assay with KM12 was > 100 µM (inactive) each time. Besides, the GI50 in the assay on SK-MEL-5, in the assay with SF-268 and in the assay with K562 was > 100 µM (inactive) in each case.
For `COC(=O)C1(C)NCCc2c1[nH]c1ccccc21` (stereo unspecified), the GI50 with LXFL 529, in the assay with RXF 393, with SNB-19, in the assay with OVCAR-4, with OVCAR-5 and with A498 was > 100 µM (inactive) throughout. The GI50 with SK-MEL-28, with NCI-H522, in the assay on OVCAR-3, with HOP-62, with SF-539 and in the assay on KM12 was > 100 µM (inactive) throughout. Further, the GI50 with SK-MEL-5, in the assay with SF-268 and in the assay with K562 was > 100 µM (inactive) each time.
`C[n+]1c2ccccc2c(CNC(CS)C(=O)O)c2ccccc21` (stereo unspecified): the GI50 is 32.4 µM (inactive) in the assay on LXFL 529; 24.1 µM (inactive) in the assay on RXF 393; 32.7 µM (inactive) in the assay with SNB-19; 28.1 µM (inactive) with OVCAR-4; 44.5 µM (inactive) in the assay with OVCAR-5; 27.2 µM (inactive) in the assay on ACHN. In addition, the GI50 was 17.2 µM (inactive) with A498; 38.5 µM (inactive) in the assay with UACC-257; 17.8 µM (inactive) in the assay on NCI-H522; 24.4 µM (inactive) in the assay with OVCAR-3; 15.5 µM (inactive) with HOP-62; 18.4 µM (inactive) in the assay with SF-539. Besides, the GI50 with KM12 is 19.7 µM (inactive); in the assay with SK-MEL-5 it was > 10 µM (inactive); in the assay on SF-268, 20.4 µM (inactive); in the assay with K562, 31.8 µM (inactive).
As to `C=C1CCC(OC(C)=O)C2(C)C(OC(C)=O)CC3OC3(C)C2C(OC(C)=O)C2C(C)C(=O)OC2C1Cl` (stereo unspecified), the GI50 in the assay with LXFL 529, in the assay with RXF 393, with SNB-19, in the assay on OVCAR-4, in the assay with OVCAR-5 and in the assay with ACHN was > 100 µM (inactive) each time. The GI50 with A498, in the assay with UACC-257, in the assay with SK-MEL-28, in the assay on OVCAR-3, in the assay with HOP-62 and with SF-539 was > 100 µM (inactive) in each case. Also, the GI50 in the assay with KM12, with SK-MEL-5, with SF-268, with LOX IMVI and in the assay on K562 was > 100 µM (inactive) throughout.
Regarding `CN(C)C(=N)c1ccccc1`, the GI50 in the assay on LXFL 529, with RXF 393, in the assay on SNB-19, in the assay with OVCAR-4, in the assay with OVCAR-5 and in the assay on UACC-257 was > 100 µM (inactive) throughout. For the same compound, the GI50 with SK-MEL-28, in the assay with NCI-H522, in the assay on OVCAR-3, in the assay with HOP-62, in the assay on SF-539 and with KM12 was > 100 µM (inactive) each time. The GI50 in the assay with LOX IMVI is > 100 µM (inactive).
